In US5668137A, “N-heterocyclic sulfonamides having endothelin receptor activity” (Zeneca Ltd., priority 1995, dated 1997):

Tested on: Human ETA or ETB receptors
Assay: Test A: inhibition of [125I]-Endothelin-1 binding to MEL cell membranes expressing recombinant receptor
Conditions: inhibition of 30 pM [125I]-Endothelin-1 binding, 180 minutes at 30° C., receptor sub-type (ETA or ETB) not stated
From the text: The endothelin receptor antagonist activity of compounds of formula I may be assessed in vitro by their ability to inhibit binding of [^125 ]-Endothelin-1 to its receptors. Human ETA or ETB receptors (sub-types of the endothelin receptor) were expressed in Mouse Erythroleukemic Cells (MEL cells) by using standard molecular techniques (for example, as described by Sambrook J., Fritsch E. F. & Maniatis T. (1989) Molecular Cloning: A Laboratory Manual, 2nd Edition, Cold Spring Harbor Press, USA). cDNA sequences encoding the human ETA, and ETB receptor (Hosoda K. et al (1991), FEBS Lett., 287, 23-26 and Sakamoto A. et al, (1991), Biochem. Biophys Res. Comm., 178, 656-663) are subcloned into pBluescript vector followed by insertion into the MEL cell expression vector pEV as described by Needham et al (1992), Nuc. Acids Res., 20, 997-1003. […]
[^125 I]-Endothelin-1 binding to MEL cell membranes was measured in incubation buffer containing 50 mM Tris HCl, 1 mM CaCl2, 0.05% polyoxyethylenesorbitan monolaurate, 0.1% Bovine Serum Albumin (BSA), 0.02% sodium azide pH 7.4 at 30° C. after 180 minutes incubation. […] Nonspecific binding was measured in the presence of 100 nM unlabelled Endothelin-1. […] The filter discs were punched out and counted in a gamma counter. Compounds are tested in triplicate over a range of concentrations and IC50 (or pIC50) values calculated.

COc1nc(C)cnc1NS(=O)(=O)c1ccccc1-c1ccc(CC(C)C(=O)O)cc1 (stereo not shown) [Example 1, 4'-(2-carboxypropyl)-N-(3-methoxy-5-methylpyrazin-2-yl)-2-biphenylsulphonamide]
pIC50 in Test A: 8.3
